Source: PMC4013053, “Identification of Selective Small Molecule Inhibitors of the Nucleotide-Binding Oligomerization Domain 1 (NOD1) Signaling Pathway” (PLoS ONE, 2014)
Values belong to the compound of their own block, whether it stands above or below them.

Key:
endogenous NOD1 = biological target: T1, endogenous NOD1 (Homo sapiens, UniProt Q9Y239); test: Tri-DAP-stimulated IL-8 release in HCT116 cells; assay type: cell-based; conditions: HCT116, increasing compound concentrations 0.005–1 µM, Tri-DAP 0.6–75 µg/mL
T1 construct: Compound activity on endogenous NOD1 and NOD2 receptors was determined; host or cells: HCT116
T1 sequence (Q9Y239 1-953): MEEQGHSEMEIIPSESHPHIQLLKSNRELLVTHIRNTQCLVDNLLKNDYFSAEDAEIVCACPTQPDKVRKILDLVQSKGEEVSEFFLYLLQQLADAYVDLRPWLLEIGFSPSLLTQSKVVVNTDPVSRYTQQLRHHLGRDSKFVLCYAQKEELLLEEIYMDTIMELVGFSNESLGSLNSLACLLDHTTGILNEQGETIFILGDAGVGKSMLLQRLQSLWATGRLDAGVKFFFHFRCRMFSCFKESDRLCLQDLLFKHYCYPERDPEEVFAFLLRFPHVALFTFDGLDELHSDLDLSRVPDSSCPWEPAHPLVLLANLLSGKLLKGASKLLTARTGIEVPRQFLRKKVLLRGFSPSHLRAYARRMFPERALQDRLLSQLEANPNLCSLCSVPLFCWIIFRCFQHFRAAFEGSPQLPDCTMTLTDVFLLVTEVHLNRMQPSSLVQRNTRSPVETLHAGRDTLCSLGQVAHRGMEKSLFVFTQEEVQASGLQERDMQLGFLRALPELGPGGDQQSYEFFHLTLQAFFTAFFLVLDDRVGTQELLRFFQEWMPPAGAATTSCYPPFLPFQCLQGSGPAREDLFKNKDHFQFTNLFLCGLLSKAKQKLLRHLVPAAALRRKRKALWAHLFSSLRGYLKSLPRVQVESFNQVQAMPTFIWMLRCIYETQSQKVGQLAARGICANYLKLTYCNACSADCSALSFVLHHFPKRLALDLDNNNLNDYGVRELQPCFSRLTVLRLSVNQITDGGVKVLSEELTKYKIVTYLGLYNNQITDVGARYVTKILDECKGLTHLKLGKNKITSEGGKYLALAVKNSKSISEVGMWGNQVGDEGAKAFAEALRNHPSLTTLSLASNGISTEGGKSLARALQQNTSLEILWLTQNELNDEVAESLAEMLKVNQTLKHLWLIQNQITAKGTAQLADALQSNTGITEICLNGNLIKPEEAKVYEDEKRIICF

TLR4 = system: TLR4; parameters: method as in PMID 22870324; conditions: human lung microvascular endothelial cells; cited from earlier work
NOD1 = system: NOD1; parameters: method as in PMID 22870324; conditions: human lung microvascular endothelial cells, 10 µg/mL iE-DAP; cited from earlier work
[1] = system: NOD1 induced NF-κB and MAPK pathways; test: Western blotting of IκBα and phospho-MAPKs in Tri-DAP stimulated 293/hNOD1 cells; assay type: cell-based, human; conditions: 50 µg/mL Tri-DAP 1 hour, immunoblotting
Description: Confluent cultures of 293/hNOD1 and -hNOD2 cells seeded in 24-well plates were serum-starved over-night, pre-incubated for 1 hour with compound and then stimulated for 1 hour with either 50 µg/mL Tri-DAP or 25 µg/mL MDP, respectively. Whole cell lysates were prepared in 1X cell lysis buffer (Cell Signaling Technology) supplemented with additional protease, aminopeptidase and phosphatase inhibitors (protease inhibitor cocktail set III, EMD Biosciences; phosphatase inhibitor sets II and III, Sigma-Aldrich). The levels of phosphorylated and total p38, JNK, ERK1/2 and total IκBα were determined by immunoblotting of ∼20 µg protein per sample using the following primary antibodies: phospho-p38 MAPK (12F8, #4631), p38 MAPK (#9212), phospho-JNK (#9251), JNK (#9252) and IκBα (#9242) all purchased from Cell Signaling Technology, and phospho-ERK1/2 (sc-7383) and ERK1/2 (sc-94) antibodies from Santa Cruz Biotechnology.

EPHB2 = biological target: T2, EPHB2 (Homo sapiens, UniProt P29323); test: Kinase activity panel: EPHB2; assay type: biochemical; conditions: 1 µM compound, 10 µM ATP
T2 construct: purchased Reaction Biology Corp
T2 sequence (P29323 19-1055): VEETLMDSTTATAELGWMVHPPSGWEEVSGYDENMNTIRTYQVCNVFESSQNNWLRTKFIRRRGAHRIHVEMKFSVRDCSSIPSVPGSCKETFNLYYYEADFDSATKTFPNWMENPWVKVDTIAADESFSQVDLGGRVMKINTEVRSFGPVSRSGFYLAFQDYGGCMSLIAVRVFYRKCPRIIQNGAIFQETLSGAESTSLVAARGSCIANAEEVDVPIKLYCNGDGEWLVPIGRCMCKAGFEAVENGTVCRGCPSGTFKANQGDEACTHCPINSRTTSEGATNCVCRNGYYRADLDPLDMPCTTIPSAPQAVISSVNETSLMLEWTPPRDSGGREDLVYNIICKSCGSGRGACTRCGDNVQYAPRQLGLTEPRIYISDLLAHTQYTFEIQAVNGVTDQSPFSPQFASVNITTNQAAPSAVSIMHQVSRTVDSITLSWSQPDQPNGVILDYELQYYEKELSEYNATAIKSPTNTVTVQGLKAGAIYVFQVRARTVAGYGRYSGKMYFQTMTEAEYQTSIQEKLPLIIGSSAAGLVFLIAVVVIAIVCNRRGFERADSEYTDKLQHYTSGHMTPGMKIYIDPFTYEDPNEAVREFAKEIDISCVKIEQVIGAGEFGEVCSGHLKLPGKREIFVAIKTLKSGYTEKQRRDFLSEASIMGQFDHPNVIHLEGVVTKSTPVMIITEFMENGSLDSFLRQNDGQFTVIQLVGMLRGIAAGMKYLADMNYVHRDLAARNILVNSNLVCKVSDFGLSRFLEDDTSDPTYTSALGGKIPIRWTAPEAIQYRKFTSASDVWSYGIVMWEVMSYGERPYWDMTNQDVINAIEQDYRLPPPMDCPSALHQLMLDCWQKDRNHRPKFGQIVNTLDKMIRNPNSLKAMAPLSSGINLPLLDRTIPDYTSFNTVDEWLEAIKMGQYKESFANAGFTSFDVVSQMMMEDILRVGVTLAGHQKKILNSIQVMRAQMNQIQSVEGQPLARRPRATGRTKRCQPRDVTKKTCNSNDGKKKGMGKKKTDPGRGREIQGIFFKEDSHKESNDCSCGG
Description: (§1) The compounds were tested in duplicate at 1 µM with a 20-minute pre-incubation with enzyme followed by addition of 10 µM ATP.

CAMK1 = biological target: T3, CAMK1 (Homo sapiens, UniProt Q14012); test: Kinase activity panel: CAMK1; assay type: biochemical; conditions: 1 µM compound, 10 µM ATP
T3 construct: purchased Reaction Biology Corp
Description: as §1

SMILES: Cc1nc2ccccc2c(=O)n1-c1ccc(Cl)c(NS(=O)(=O)c2ccccc2F)c1 [Compound 22]
effect on Tri-DAP concentration response (IL-8) (endogenous NOD1): progressive reduction in both the apparent EC50 and maximum response of Tri-DAP
effect on IL-8 release, LPS stimulated (TLR4): no inhibitory effect
effect on IL-8 secretion, iE-DAP stimulated (NOD1): inhibited IL-8 secretion

SMILES: Cc1ccc(S(=O)(=O)Nc2cccc(C(=O)Nc3ccc4nc(C)sc4c3)c2)cc1 [Compound 16]
effect on Tri-DAP concentration response (IL-8) (endogenous NOD1): progressive reduction in both the apparent EC50 and maximum response of Tri-DAP
effect on Tri-DAP induced p-JNK, p-p38 and IκBα responses [1]: reduced both phospho-JNK and the weaker phospho-p38 levels while levels of IκBα were increased

decrease of EPHB2 activity (EPHB2): 51%
SMILES: Cn1c(=O)[nH]c(=O)c2c1nc(CCSc1ccccc1)n2Cc1ccccc1 [SB711]

decrease of CAMK1 activity (CAMK1): 55%
SMILES: Cc1nc2ccc(NC(=O)c3cccc(NS(=O)(=O)c4ccc(F)cc4)c3)cc2s1 [GSK966]
